Reference: US4011390A, “Semi-synthetic aminocyclitol aminoglycoside antibiotics and methods for the preparation thereof” (Schering-Plough Corporation, priority 1974, dated 1977)
Values after ≈ are worked out from the molar mass of the structure shown.

What was measured:
Experiment in all cases: MIC in Mueller-Hinton Broth pH 7.2
Format in all cases: cell-based
Candida albicans = conditions: pH 7.2
Description: (§1) In vitro Activity of the Mutamicins and Sisomicin
(§2) MIC's in Mueller-Hinton Broth pH 7.2

Escherichia coli = test system: Escherichia coli
Description: as §1, §2

Streptococcus pyogenes = test system: Streptococcus pyogenes
Description: as §1, §2

Question: What does the source list for CN[C@@H]1[C@@H](O)[C@@H](O[C@@H]2[C@@H](O)[C@H](O[C@H]3OC(CN)=CC[C@H]3N)[C@@H](N)C[C@H]2N)OC[C@]1(C)O [Sisomicin, O-2,6-Diamino-2,3,4,6-tetradeoxy-α-D-glycero-hex-4-eno-pryanosyl(1→4)-O-[3-deoxy-4-C-methyl-3-(methylamino)-B-L-arabinopyranosyl(1→6)] -2-deoxy-D-streptamine, reference compound]?
Answer: MIC (Candida albicans): > 25 µg/mL; MIC (Escherichia coli; ATCC10536, pH 7.2, strain ATCC 10536): 0.08 µg/mL (≈ 0.179 µM); MIC (Escherichia coli; pH 7.2, strain Baker 2): 0.3 µg/mL (≈ 0.67 µM); MIC (Escherichia coli; pH 7.2, strain Fl4-Bk): 0.3 µg/mL (≈ 0.67 µM); MIC (Escherichia coli; pH 7.2, strain Genta. adenyl LA290-R55): 17.5 µg/mL (≈ 39.1 µM); MIC (Escherichia coli; pH 7.2, strain Genta. adenyl W677/R55): 7.5 µg/mL (≈ 16.8 µM); MIC (Escherichia coli; pH 7.2, strain Kana. phosphor. 589): 0.8 µg/mL (≈ 1.79 µM); MIC (Escherichia coli; pH 7.2, strain Kana. phosphor. C-13): 0.3 µg/mL (≈ 0.67 µM); MIC (Escherichia coli; pH 7.2, strain Tobra. R 4195): 0.8 µg/mL (≈ 1.79 µM); MIC (Streptococcus pyogenes; pH 7.2, strain 27): 3 µg/mL (≈ 6.7 µM); MIC (Streptococcus pyogenes; pH 7.2, strain Alvarez): 3 µg/mL (≈ 6.7 µM); MIC (Streptococcus pyogenes; pH 7.2, strain C): 3 µg/mL (≈ 6.7 µM); MIC (Streptococcus pyogenes; pH 7.2, strain Cruz): 3 µg/mL (≈ 6.7 µM); MIC (Streptococcus pyogenes; pH 7.2, strain Karipeds): 0.8 µg/mL (≈ 1.79 µM); MIC (Streptococcus pyogenes; pH 7.2, strain Labay): 3 µg/mL (≈ 6.7 µM)
